Measurements: patent publication US8372336B2, “Polymeric corrosion inhibitors” (Akzo Nobel Chemicals International B.V., priority 2009, dated 2013)

Assay: Bubble test, corrosion inhibition performance in brine (LPR)
Details: Forties synthetic brine, 55° C., CO2 saturated
Experimental: Corrosion Inhibition Performance in Brine
The tests were carried out using the well-known “bubble test” method, see for instance the discussion in NACE International, Vol. 46, No. 5, pp 46-51 (May 2007), where the corrosion rate is monitored by linear polarisation (LPR). First a baseline corrosion rate in the medium is established, and then corrosion rates with different amounts of inhibitor added are measured.
The detailed conditions for the tests were as follows:
CO2 CO2 Saturated at ambient pressure (˜0.9 bara partial pressure)
Solution 100% Typical “Forties” (North Sea water) synthetic brine as shown below:
• Chloride=42.539 mg/l • Sulphate=0 mg/l • Barium=173 mg/l • Calcium=1.979 mg/l • Strontium=351 mg/l • Magnesium=377 mg/l • Sodium=24.973 mg/l • Potassium=341 mg/l • Bicarbonate=200 mg/l Electrode Fabricated from AISI 1018 (UNS G10180), polished to 600 grit finish, degreased, rinsed, and dried Inhibitor Concentration 4 hour precorrosion without inhibitor, then dose with 10 or 20 mg/kg of inhibitor and evaluate corrosion rate for at least 8 h, then add inhibitor so that the next level of total inhibitor dosage is reached according to Table 1. After each addition the corrosion rate is measured for at least 8 h. Gas and partial Ambient pressure test. Maximum partial pressure 1 pressure bara (less saturated water vapour pressure at test temperature). Corrosion Monitoring LPR±10 mV step perturbation with a 2-minute time constant. A Stearn-Geary constant of 25 mV was used to calculate corrosion rates from LPR data. Corrosion rates were monitored throughout each test with a measurement taken every 30 minutes. […] The corrosion inhibitor bases were formulated as follows prior to testing: 40% base product 4% glacial acetic acid 20% n-butanol 36% water The % protection was calculated from the following equation: % protection=(1−(x/y))*100 wherein x=corrosion rate in the presence of corrosion inhibitor (mm/year) • y=corrosion rate in the absence of corrosion inhibitor (mm/year)

**Q.** For “C12-C16 Coco benzyl quaternary amine [Quaternary amine*]”, which “% Protection” value (20 ppm inhibitor) is on record?
**A.** −28.3%

**Q.** What about the “% Protection” value (50 ppm inhibitor) of the same substance?
**A.** 38.0%

**Q.** What about the “% Protection” value (100 ppm inhibitor) of the same substance?
**A.** 97.7%
